Assay results reported in patent US20210267929A1, “COMPOSITIONS AND METHODS FOR TREATMENT OF ORAL ULCERATION AND ORAL MUCOSITIS” (CelaCare Technologies, Inc., priority 2018, published 2021).
In brackets after ≈: the same amount, converted by molar mass.

How the values were obtained:
[1] = test system: Candida parapsilosis ATCC 22019; assay: Broth microdilution MIC (CLSI M27), oral rinses, silver API and controls; type: cell-based; conditions: 35° C., 24 hours, at least 50% OD530 inhibition; for MIC: Lodderomyces parapsilosis, ATCC22019, CLSI M27, RPMI, read-out: MIC (mg/L) Mean
Procedure: (§1) This experiment tested two examples of the oral rinse in the treatment of three different Candida organisms associated with oral mucositis. The embodiments of the Oral Rinses tested in this experiment were: • Oral Rinse 170915-10 μg/mL silver citrate complex, 4 mg/mL acemannan, 5 mg/mL Disodium EDTA, 0.1 mg/mL Hyaluronic acid, 2 mg/mL PVP, 5.75 mg/ml of masking and cherry flavor, purified water, pH adjustment with tris(hydroxymethyl)aminomethane to a pH of 6.36. • Oral Rinse 170719-8 μg/mL silver citrate complex, 3.9 mg/mL acemannan, 5 mg/mL Disodium EDTA, 0.1 mg/mL Hyaluronic acid, 2 mg/mL PVP, 5.75 mg/ml of masking agent and cherry flavor, purified water, pH adjustment with tris(hydroxymethyl)aminomethane to a pH of 6.38.
(§2) The antimicrobial activity of two oral rinse solutions as described above, Example 2, was tested using the microtube dilution method described in the Clinical and Laboratory Standards Institute (CLSI) Reference Method for Broth Dilution Antifungal Susceptibility Testing of Yeasts, M27-4. In brief, a standard inoculum of each microorganism was prepared by diluting a 0.5 MacFarland turbidity standard of the microorganism 1:100 in RPMI media without sodium bicarbonate. Then, 100 μL of the standard inoculum was added to equal volumes of two-fold serial dilutions of the silver API (active pharmaceutical ingredient, silver citrate complex), controls, or the oral rinse solution, and the plates were incubated at 35° C. for 24 hours. MICs were determined photometrically as the lowest antimicrobial agent concentration (last well in the dilution series) that inhibited OD530 absorbance at least 50%. Each experiment was performed three times, with each antimicrobial agent tested in duplicate or triplicate.

[2] = test system: Issatchenkia orientalis ATCC 5258 (formerly known as Candida krusei); assay: as above; type: cell-based; conditions: 35° C., 24 hours, at least 50% OD530 inhibition; for MIC: Pichia kudriavzevii, ATCC5258, CLSI M27, RPMI, read-out: MIC (mg/L) Mean
Procedure: as §1, §2

[3] = test system: Candida albicans ATCC 24433; assay: as above; type: cell-based; conditions: 35° C., 24 hours, at least 50% OD530 inhibition; for MIC: ATCC24433, CLSI M27, RPMI, read-out: MIC (mg/L) Mean
Procedure: as §1, §2

[4] = test system: Candida tropicalis ATCC 1369; assay: Broth microdilution MIC (EUCAST), oral rinse vs marketed antifungals; type: cell-based; conditions: 35° C., 48 hours, at least 50% OD530 inhibition; for MIC: ATCC1369, RPMI + 2% glucose, read-out: MIC (mg/L) Mean
Text: (§3) The purpose of this experiment was to determine the potency of one embodiment of the oral rinse on different Candida species, namely Candida albicansATCC 10231 and ATCC 24433, Candida glabrataATCC 15126, Candida krusei (Issechenkia orientalis)ATCC 6258, Candida parapsilosisATCC 22019, and Candida tropicalisATCC 1369, to determine the minimum inhibitory concentration (MIC) of the oral rinse on each species. The oral rinse was compared to current antifungal treatments on the market.
(§4) The embodiment of the oral rinse 150528 tested in this experiment included 10 μg/mL silver citrate complex, 3 mg/mL acemannan, 5 mg/mL Disodium EDTA, 0.1 mg/mL Hyaluronic acid, 2 mg/mL PVP, 3.5 mg/ml of masking and cherry flavor, purified water, pH adjustment with tris(hydroxymethyl)aminomethane to a pH of 6.59. The current antifungal treatments that were tested and compared were Fluconazole (Sigma-Aldrich, Cat: PHR1160-1G, Lot LRAA6502) a Nystatin suspension (Sigma-Aldrich, Cat: N6261-SMU, Lot 020M13491V), and Gentian Violet (1% Humco, Cat: NDC 0395-1003-92, Lot547845).
(§5) The antimicrobial activity of the oral rinse solution as described above, Example 1, was tested using the micro-tube dilution method described in the Method for Determination of Broth Dilution MICs of Antifungal agents for fermentative yeasts, published by the European Committee for Antimicrobial Susceptibility Testing (EUCAST). In brief, a standard inoculum of each microorganism was prepared by diluting a 0.5 MacFarland turbidity standard of the microorganism 1:100 in RPMI media without sodium bicarbonate plus 2% glucose. Then, 100 μL of the standard inoculum was added to equal volumes of two-fold serial dilutions of the oral rinse solution or controls, and the plates were incubated at 35° C. for 48 hours. MICs were determined photometrically as the lowest antimicrobial agent concentration (last well in the dilution series) that inhibited OD530 absorbance at least 50%. Each experiment was performed three times, with each antimicrobial agent tested in duplicate or triplicate.

[5] = test system: Candida parapsilosis ATCC 22019; assay: as above; type: cell-based; conditions: 35° C., 48 hours, at least 50% OD530 inhibition; for MIC: Lodderomyces parapsilosis, ATCC22019, RPMI + 2% glucose, read-out: MIC (mg/L) Mean
Text: as §3, §4, §5

[6] = test system: Issatchenkia orientalis ATCC 6258 (formerly known as Candida krusei); assay: as above; type: cell-based; conditions: 35° C., 48 hours, at least 50% OD530 inhibition; for MIC: Pichia kudriavzevii, ATCC6258, RPMI + 2% glucose, read-out: MIC (mg/L) Mean
Text: as §3, §4, §5

[7] = test system: Candida albicans ATCC 10231; assay: as above; type: cell-based; conditions: 35° C., 48 hours, at least 50% OD530 inhibition; for MIC: ATCC10231, RPMI + 2% glucose, read-out: MIC (mg/L) Mean
Text: as §3, §4, §5

[8] = test system: Candida glabrata ATCC 15126; assay: as above; type: cell-based; conditions: 35° C., 48 hours, at least 50% OD530 inhibition; for MIC: Nakaseomyces glabratus, ATCC15126, RPMI + 2% glucose, read-out: MIC (mg/L) Mean
Text: as §3, §4, §5

[9] = test system: Candida albicans ATCC 24433; assay: as above; type: cell-based; conditions: 35° C., 48 hours, at least 50% OD530 inhibition; for MIC: ATCC24433, RPMI + 2% glucose, read-out: MIC (mg/L) Mean
Text: as §3, §4, §5

[10] = according to the EPA; cited from earlier work
[11] = estimated from animal studies in mice, rats, dogs, and monkeys; cited from earlier work
[12] = total body contents from past cases; cited from earlier work
[13] = test system: Issatchenkia orientalis ATCC 5258 (formerly known as Candida krusei); conditions: expected control range; cited from earlier work
[14] = test system: Candida parapsilosis ATCC 22019; conditions: expected control range; cited from earlier work
[15] = test system: Streptococcus pneumoniae ATCC 49619; conditions: expected control range; cited from earlier work
[16] = test system: Staphylococcus aureus ATCC 29213; conditions: expected control range; cited from earlier work
[17] = test system: Staphylococcus aureus ATCC 29213; assay: Microtube dilution MIC (CLSI M07), oral rinses vs vancomycin; type: cell-based; conditions: ATCC29213, read-out: MIC (mg/L) Mean
Text: The purpose of this experiment was to determine the potency of one embodiment of the oral rinse on three common gram-positive cocci species tested: Staphylococcus aureus, Streptococcus pneumoniae, Streptococcus pyogenes by determining the minimal inhibitory concentrations (MIC) of the oral rinse on each species. The oral rinse was compared to vancomycin, a common antibiotic used to treat various infections.
The embodiment of the oral rinses (170915 and 171003) tested in this experiment included 10 ug/mL silver citrate complex, 4 mg/mL acemannan, 5 mg/mL Disodium EDTA, 0.1 mg/mL Hyaluronic acid, 2 mg/mL PVP, […] of masking and cherry flavor, purified water, and pH adjustment with tris(hydroxymethyl)aminomethane to a pH of 6.36 and pH of 6.40, respectively. The vancomycin control (Sigma-Aldrich, Cat: PHR1160-1G, Lot LRAA9717, 5120 ppm) was reconstituted 20.5 mg/4 mL RO water.
The antimicrobial activity of this embodiment of the oral rinse solution was tested using the microtube dilution method for determining minimal inhibitory concentrations (MIC) described in the Clinical and Laboratory Standards (CLSI) Methods for Dilution Antimicrobial Susceptibility Tests for Bacteria that Grow Aerobically, M07, 11th ed, Approved January 2018. […]

[18] = type: cell-based
Procedure: The product has been evaluated for cytotoxicity and deemed to be non-cytotoxic using a standard protocol at a GLP laboratory. […] A safety study for acemannan in humans was conducted to evaluate its effect in the treatment of oral aphthous ulcers. The initial study of 50 healthy patients received 0.5% acemannan incorporated into a Carbopol thickener applied to the oral mucosa of the lower lip three times a day for 7 days. Oral exams and kidney and liver function were evaluated prior to and at the end of the study. […] Since the present compositions are utilized as an oral rinse, acemannan is not expected to be absorbed systemically through the mucosa and will merely coat the patients' mouths. Acemannan has also previously been cleared to market in oral device products. Based on current safety data on the ingredients incorporated into the compositions and the 14-day duration of use for patients in the study, the compositions will not provide significant patient risks when dosed as intended.

healthy patients = conditions: in vivo; cited from earlier work

## Silver citrate complex
[1]; CLSI M27, RPMI
  MIC (mg/L) Mean: 0.088 mg/L
[2]; CLSI M27, RPMI
  MIC (mg/L) Mean: 0.117 mg/L
[3]; CLSI M27, RPMI
  MIC (mg/L) Mean: 0.234 mg/L

## CN(C)c1ccc(C(=C2C=CC(=[N+](C)C)C=C2)c2ccc(N(C)C)cc2)cc1 [Gentian Violet]
[4]
  MIC: 0.3 mg/L
[5]
  MIC: 0.2 mg/L
[6]
  MIC: 0.3 mg/L
[7]
  MIC: 0.3 mg/L
[8]
  MIC: 1.02 mg/L
[9]
  MIC: 0.3 mg/L

## [Ag] [silver]
[10]
  safe lifetime continuous exposure: 5 micrograms/kg/day
[11]
  human elimination of silver from oral ingestion: 90%
[12]
  total amount of silver required to cause argyria: 3.8 to 6.4 g

## OC(Cn1cncn1)(Cn1cncn1)c1ccc(F)cc1F [Fluconazole]
[1]
  MIC: 1.67 mg/L (≈ 5.44 µM)
[2]
  MIC: 14.7 mg/L (≈ 47.9 µM)
[3]
  MIC: 0.583 mg/L (≈ 1.9 µM)
[13]
  MIC Control Range: 8 to 64 µg/mL
[4]
  MIC: 0.5 mg/L
[5]
  MIC: 1.2 mg/L
[6]
  MIC: 24 mg/L
[7]
  MIC: 1.2 mg/L
[8]
  MIC: 7.3 mg/L
[9]
  MIC: 0.5 mg/L
[14]
  MIC Control Range: 0.5 to 4.0 µg/mL

## CN[C@H](CC(C)C)C(=O)N[C@H]1C(=O)N[C@@H](CC(N)=O)C(=O)N[C@H]2C(=O)N[C@H]3C(=O)N[C@H](C(=O)N[C@H](C(=O)O)c4cc(O)cc(O)c4-c4cc3ccc4O)[C@H](O)c3ccc(c(Cl)c3)Oc3cc2cc(c3O[C@@H]2O[C@H](CO)[C@@H](O)[C@H](O)[C@H]2O[C@H]2C[C@](C)(N)[C@H](O)[C@H](C)O2)Oc2ccc(cc2Cl)[C@H]1O [Vancomycin]
[15]
  MIC Control Range: Vancomycin (Control 0.06-0.5) mg/L
[16]
  MIC Control Range: Vancomycin (Control 0.5-2.0) mg/L
[17]
  MIC: 0.7 mg/L (≈ 0.483 µM)

## acemannan
[18]
  cytotoxicity: non-cytotoxic
Healthy patients
  adverse effects or allergic reactions: No patients reported adverse effects or allergic reactions
  pre- versus post-test blood values (kidney and liver function): no statistical difference

## Nc1[nH]c(=O)ncc1F [Flucytosine]
[1]
  MIC: 0.063 mg/L (≈ 0.488 µM)
[2]
  MIC: 3.67 mg/L (≈ 28.4 µM)
[3]
  MIC: 0.25 mg/L (≈ 1.94 µM)
[13]
  MIC Control Range: 4 to 16 µg/mL
[14]
  MIC Control Range: 0.06 to 0.25 µg/mL

## C[C@@H]1[C@H](O)[C@@H](C)/C=C/C=C/CC/C=C/C=C/C=C/C=C/C(O[C@H]2O[C@H](C)[C@@H](O)[C@H](N)[C@@H]2O)CC2O[C@](O)(CC(O)C(O)CCC(O)CC(O)CC(O)CC(=O)O[C@H]1C)CC(O)C2C(=O)O (stereo partly shown) [Nystatin]
[4]; RPMI + 2% glucose
  MIC (mg/L) Mean: 2.2 mg/L
[5]; RPMI + 2% glucose
  MIC (mg/L) Mean: 2.7 mg/L
[6]; RPMI + 2% glucose
  MIC (mg/L) Mean: 5.4 mg/L
[7]; RPMI + 2% glucose
  MIC (mg/L) Mean: 3.9 mg/L
[8]; RPMI + 2% glucose
  MIC (mg/L) Mean: 2.7 mg/L
[9]; RPMI + 2% glucose
  MIC (mg/L) Mean: 4.8 mg/L
